In US20230072683A1, “PYRIDO-PYRIMIDIN DERIVATIVES AND PHARMACEUTICAL COMPOSITION, FOR USE IN PREVENTING OR TREATING PI3 KINASE RELATED DISEASES, COMPRISING SAME AS ACTIVE INGREDIENT” (BORYUNG PHARMACEUTICAL CO., LTD, priority 2019, published 2023):
Like-named read-outs stand apart in the source and are kept apart here.

How the values were obtained:
[1] = molecular target: PI3K-δ (PI3K(p1108/p857) (h)) (Homo sapiens, UniProt O00329); assay: Evaluation of inhibitory activity against PI3K-δ (HTRF kinase assay); format: biochemical; settings: for inhibition at 0.01 µM: compound concentration 0.01 μM, read-out: EXP_VALUE(% Inhibition) PI3K-δ 0.01 μM; for inhibition at 0.1 µM: read-out: EXP_VALUE(% Inhibition) PI3K-δ 0.1 μM
Sequence of PI3K-δ (PI3K(p1108/p857) (h)) (O00329 whole entry, the tested form may be a part): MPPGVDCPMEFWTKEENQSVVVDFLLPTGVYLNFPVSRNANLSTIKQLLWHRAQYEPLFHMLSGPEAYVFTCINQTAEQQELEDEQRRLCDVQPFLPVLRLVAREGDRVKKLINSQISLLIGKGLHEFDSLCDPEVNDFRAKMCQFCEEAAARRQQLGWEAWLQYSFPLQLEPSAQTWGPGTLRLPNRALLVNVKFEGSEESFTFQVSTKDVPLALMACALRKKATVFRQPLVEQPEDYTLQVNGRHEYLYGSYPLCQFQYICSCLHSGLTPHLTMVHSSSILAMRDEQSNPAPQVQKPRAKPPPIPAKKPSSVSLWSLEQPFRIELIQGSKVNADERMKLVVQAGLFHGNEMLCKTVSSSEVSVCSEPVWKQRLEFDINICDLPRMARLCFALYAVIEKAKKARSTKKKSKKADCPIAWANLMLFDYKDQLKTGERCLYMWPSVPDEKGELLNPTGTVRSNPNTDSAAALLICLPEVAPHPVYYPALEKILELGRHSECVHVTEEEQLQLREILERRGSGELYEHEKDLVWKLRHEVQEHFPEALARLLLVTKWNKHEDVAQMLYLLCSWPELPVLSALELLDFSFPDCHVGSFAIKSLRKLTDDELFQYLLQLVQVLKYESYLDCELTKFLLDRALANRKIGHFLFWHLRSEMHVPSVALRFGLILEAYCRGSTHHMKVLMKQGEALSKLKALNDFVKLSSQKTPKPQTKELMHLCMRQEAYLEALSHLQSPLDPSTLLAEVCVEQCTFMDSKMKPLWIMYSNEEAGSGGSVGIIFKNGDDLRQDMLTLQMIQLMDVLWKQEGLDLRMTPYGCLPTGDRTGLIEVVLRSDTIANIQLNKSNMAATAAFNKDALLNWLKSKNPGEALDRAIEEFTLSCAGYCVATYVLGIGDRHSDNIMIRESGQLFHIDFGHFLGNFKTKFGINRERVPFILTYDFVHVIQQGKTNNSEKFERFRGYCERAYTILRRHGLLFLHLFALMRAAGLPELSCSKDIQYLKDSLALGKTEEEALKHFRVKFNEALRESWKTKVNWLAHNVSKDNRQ
Sequence of PI3K-δ (PI3K(p1108/p857) (h)) (P27986 whole entry partner, the tested form may be a part): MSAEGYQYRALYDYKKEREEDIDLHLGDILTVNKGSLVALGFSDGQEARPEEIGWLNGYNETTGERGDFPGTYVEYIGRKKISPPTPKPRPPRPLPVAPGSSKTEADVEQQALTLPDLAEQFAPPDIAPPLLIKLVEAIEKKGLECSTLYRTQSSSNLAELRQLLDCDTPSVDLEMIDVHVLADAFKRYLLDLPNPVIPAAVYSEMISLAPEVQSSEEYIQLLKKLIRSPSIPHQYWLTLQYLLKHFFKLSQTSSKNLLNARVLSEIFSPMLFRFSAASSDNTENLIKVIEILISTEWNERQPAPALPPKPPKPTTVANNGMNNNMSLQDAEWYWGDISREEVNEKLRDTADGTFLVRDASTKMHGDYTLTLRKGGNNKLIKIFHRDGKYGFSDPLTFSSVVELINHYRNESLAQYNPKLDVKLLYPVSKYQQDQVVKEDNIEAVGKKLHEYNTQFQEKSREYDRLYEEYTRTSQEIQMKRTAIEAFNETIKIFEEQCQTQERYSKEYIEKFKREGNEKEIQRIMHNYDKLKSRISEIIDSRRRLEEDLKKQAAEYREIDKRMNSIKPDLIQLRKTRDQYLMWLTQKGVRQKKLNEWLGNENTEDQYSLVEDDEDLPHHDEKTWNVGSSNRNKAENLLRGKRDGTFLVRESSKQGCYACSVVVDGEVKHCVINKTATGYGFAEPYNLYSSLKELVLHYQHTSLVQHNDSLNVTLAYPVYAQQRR
Summary of the method: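 HTRF read-out (665/620 nm ratio ×10000) used Eu-labelled anti-GST, GST-tagged GRP1 PH domain and streptavidin-allophycocyanin after EDTA/PIP3 stop.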

[2] = molecular target: DNA-PK(h) (Homo sapiens, UniProt P78527); assay: Evaluation of inhibitory activity against DNA-PK (HTRF kinase assay, GST-cMyc-p53 substrate); format: biochemical; settings: for inhibition at 0.01 µM: compound concentration 0.01 μM, read-out: EXP_VALUE(% Inhibition) DNA-PK(h) 0.01 μM; for inhibition at 0.1 µM: read-out: EXP_VALUE(% Inhibition) DNA-PK(h) 0.1 μM
Summary of the method: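 Human DNA-PK with 50 μM GST-cMyc-p53 substrate; reaction started with Mg/ATP, run 30 min at room temperature, stopped with EDTA. Phospho-Ser15 p53 detected by HTRF (Eu anti-phospho-Ser15, d2 anti-GST), signal = 10000×(Em 665/Em 620).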

SMILES | inhibition at 0.01 µM [1] [%] | inhibition at 0.01 µM [2] [%] | inhibition at 0.1 µM ([1]; compound at 0.1 μM) [%] | inhibition at 0.1 µM ([2]; compound at 0.1 μM) [%] | inhibition at 0.1 µM ([1]; compound concentration 0.1 μM) [%] | inhibition at 0.1 µM ([2]; compound concentration 0.1 μM) [%]
C[C@H](Nc1ncnc2[nH]ccc(=O)c12)c1c(Cl)c2cccc(NC(=O)C(C)(C)C)c2c(=O)n1-c1ccccc1 [Example 295, (S)—N-(4-chloro-1-oxo-3-(1-((5-oxo-5,8-dihydropyrido[2,3-d]pyrimidin-4-yl)amino)ethyl)-2-phenyl-1,2-dihydroisoquinolin-8-yl) pivalamide] | 24 | 56 | – | – | – | –
COC(C)(C)c1ncc(-c2cccc3c(Cl)c([C@H](C)Nc4ncnc5[nH]ccc(=O)c45)n(-c4ccccc4)c(=O)c23)cn1 [Example 405, (S)-4-((1-(4-chloro-8-(2-(2-methoxypropan-2-yl)pyrimidin-5-yl)-1-oxo-2-phenyl-1,2-dihydroisoquinolin-3-yl)ethyl)amino)pyrido[2,3-d]pyrimidin-5(8H)-one] | – | – | 69 | 74 | – | –
C[C@H](Nc1ncnc2[nH]ccc(=O)c12)c1c(Br)c2cccc(-c3ccc(F)cc3)c2c(=O)n1-c1ccccc1 [Example 18, (S)-4-((1-(4-bromo-8-(4-fluorophenyl)-1-oxo-2-phenyl-1,2-dihydroisoquinolin-3-yl)ethyl)amino)pyrido[2,3-d]pyrimidin-5(8H)-one] | 80 | 75 | – | – | 96 | 98
C[C@H](Nc1ncnc2[nH]ccc(=O)c12)c1c(Cl)c2cccc(-c3cnn(C)c3)c2c(=O)n1-c1ccccc1 [Example 5, (S)-4-((1-(4-chloro-8-(1-methyl-1H-pyrazol-4-yl)-1-oxo-2-phenyl-1,2-dihydroisoquinolin-3-yl)ethyl)amino)pyrido[2,3-d]pyrimidin-5(8H)-one] | 106 | 69 | – | – | 115 | 100
C[C@H](Nc1ncnc2[nH]ccc(=O)c12)c1c(Cl)c2cccc(-c3ccc(Cl)cc3)c2c(=O)n1-c1ccccc1 [Example 84, (S)-4-((1-(4-chloro-8-(4-chlorophenyl)-1-oxo-2-phenyl-1,2-dihydroisoquinolin-3-yl)ethyl)amino)pyrido[2,3-d]pyrimidin-5(8H)-one] | 49 | 16 | – | – | 91 | 65
C[C@H](Nc1ncnc2[nH]ccc(=O)c12)c1c(Cl)c2cccc(-c3ccc(C#N)cc3)c2c(=O)n1-c1ccccc1 [Example 259, (S)-4-(4-chloro-1-oxo-3-(1-((5-oxo-5,8-dihydropyrido[2,3-d]pyrimidin-4-yl)amino)ethyl)-2-phenyl-1,2-dihydroisoquinolin-8-yl)benzonitrile] | 108 | 50 | – | – | 116 | 86
C[C@H](Nc1ncnc2[nH]ccc(=O)c12)c1c(Cl)c2cccc(-c3ccc4[nH]c(=O)[nH]c4c3)c2c(=O)n1-c1ccccc1 [Example 21, (S)-4-((1-(4-chloro-1-oxo-8-(2-oxo-2,3-dihydro-1H-benzo[d]imidazol-5-yl)-2-phenyl-1,2-dihydroisoquinolin-3-yl)ethyl)amino)pyrido[2,3-d]pyrimidin-5(8H)-one] | 90 | 69 | – | – | 99 | 95
C[C@H](Nc1ncnc2[nH]ccc(=O)c12)c1c(Cl)c2cccc(C(=O)NCc3ccncc3)c2c(=O)n1-c1ccccc1 [Example 439, (S)-4-chloro-1-oxo-3-(1-((5-oxo-5,8-dihydropyrido[2,3-d]pyrimidin-4-yl)amino)ethyl)-2-phenyl-N-(pyridin-4-ylmethyl)-1,2-dihydroisoquinoline-8-carboxamide] | – | – | 92 | 16 | – | –
CC(C)NC(=O)c1ccc(-c2cccc3c(Cl)c([C@H](C)Nc4ncnc5[nH]ccc(=O)c45)n(-c4ccccc4)c(=O)c23)cc1 [Example 193, (S)-4-(4-chloro-1-oxo-3-(1-((5-oxo-5,8-dihydropyrido[2,3-d]pyrimidin-4-yl)amino)ethyl)-2-phenyl-1,2-dihydroisoquinolin-8-yl)-N-isopropylbenzamide] | 72 | 71 | – | – | – | –
C[C@H](Nc1ncnc2[nH]ccc(=O)c12)c1c(Cl)c2cccc(-c3cnn(C4CC4)c3)c2c(=O)n1-c1ccccc1 [Example 96, (S)-4-((1-(4-chloro-8-(1-cyclopropyl-1H-pyrazol-4-yl)-1-oxo-2-phenyl-1,2-dihydroisoquinolin-3-yl)ethyl)amino)pyrido[2,3-d]pyrimidin-5(8H)-one] | 86 | 78 | – | – | 97 | 100
C[C@H](Nc1ncnc2[nH]ccc(=O)c12)c1c(Cl)c2cccc(-c3cnc(N4CCC4)nc3)c2c(=O)n1-c1ccccc1 [Example 200, (S)-4-((1-(8-(2-(azetidin-1-yl)pyrimidin-5-yl)-4-chloro-1-oxo-2-phenyl-1,2-dihydroisoquinolin-3-yl)ethyl)amino)pyrido[2,3-d]pyrimidin-5(8H)-one] | 77 | 72 | – | – | – | –
C[C@H](Nc1ncnc2[nH]ccc(=O)c12)c1c(Cl)c2cccc(-c3ccc(C(N)=O)cc3)c2c(=O)n1-c1ccccc1 [Example 80, (S)-4-(4-chloro-1-oxo-3-(1-((5-oxo-5,8-dihydropyrido[2,3-d]pyrimidin-4-yl)amino)ethyl)-2-phenyl-1,2-dihydroisoquinolin-8-yl)benzamide] | 110 | 90 | – | – | 101 | 106
C[C@H](Nc1ncnc2[nH]ccc(=O)c12)c1c(Cl)c2cccc(-c3ccc(S(C)(=O)=O)nc3)c2c(=O)n1-c1ccccc1 [Example 219, (S)-4-((1-(4-chloro-8-(6-(methylsulfonyl)pyridin-3-yl)-1-oxo-2-phenyl-1,2-dihydroisoquinolin-3-yl)ethyl)amino)pyrido[2,3-d]pyrimidin-5(8H)-one] | 97 | 82 | – | – | – | –

More lines, now with the values ahead:

inhibition at 0.01 µM [1] [%] | inhibition at 0.01 µM [2] [%] | inhibition at 0.1 µM ([1]; compound at 0.1 μM) [%] | inhibition at 0.1 µM ([2]; compound at 0.1 μM) [%] | inhibition at 0.1 µM ([1]; compound concentration 0.1 μM) [%] | inhibition at 0.1 µM ([2]; compound concentration 0.1 μM) [%] | SMILES
76 | 34 | – | – | – | – | C[C@H](Nc1ncnc2[nH]ccc(=O)c12)c1c(Cl)c2cccc(-c3cc4[nH]ncc4cn3)c2c(=O)n1-c1ccccc1 [Example 27, (S)-4-((1-(4-chloro-1-oxo-2-phenyl-8-(1H-pyrazolo[4,3-c]pyridin-6-yl)-1,2-dihydroisoquinolin-3-yl)ethyl)amino)pyrido[2,3-d]pyrimidin-5(8H)-one]
68 | 61 | – | – | 88 | 92 | C[C@H](Nc1ncnc2[nH]ccc(=O)c12)c1c(Cl)c2cccc(-c3ccccc3F)c2c(=O)n1-c1ccccc1 [Example 122, (S)-4-((1-(4-chloro-8-(2-fluorophenyl)-1-oxo-2-phenyl-1,2-dihydroisoquinolin-3-yl)ethyl)amino)pyrido[2,3-d]pyrimidin-5(8H)-one]
11 | -11 | – | – | 30 | 21 | C[C@H](Nc1ncnc2[nH]ccc(=O)c12)c1c(Cl)c2cccc(N(C)C3CCCCC3)c2c(=O)n1-c1ccccc1 [Example 322, (S)-4-((1-(4-chloro-8-(cyclohexyl(methyl)amino)-1-oxo-2-phenyl-1,2-dihydroisoquinolin-3-yl)ethyl)amino)pyrido[2,3-d]pyrimidin-5(8H)-one]
89 | 76 | – | – | – | – | C[C@H](Nc1ncnc2[nH]ccc(=O)c12)c1c(Cl)c2cccc(-c3ccc4ncnn4c3)c2c(=O)n1-c1ccccc1 [Example 42, (S)-4-((1-(8-([1,2,4]triazolo[1,5-a]pyridin-6-yl)-4-chloro-1-oxo-2-phenyl-1,2-dihydroisoquinolin-3-yl)ethyl)amino)pyrido[2,3-d]pyrimidin-5(8H)-one]
– | – | 81 | 69 | – | – | CC(C)c1ncc(-c2cccc3c(Cl)c([C@H](C)Nc4ncnc5[nH]ccc(=O)c45)n(-c4ccccc4)c(=O)c23)cn1 [Example 381, (S)-4-((1-(4-chloro-8-(2-isopropylpyrimidin-5-yl)-1-oxo-2-phenyl-1,2-dihydroisoquinolin-3-yl)ethyl)amino)pyrido[2,3-d]pyrimidin-5(8H)-one]
75 | 44 | – | – | 100 | 77 | C[C@H](Nc1ncnc2[nH]ccc(=O)c12)c1c(Cl)c2cccc(-c3ccc(C(F)(F)F)cc3Cl)c2c(=O)n1-c1ccccc1 [Example 256, (S)-4-((1-(4-chloro-8-(2-chloro-4-(trifluoromethyl)phenyl)-1-oxo-2-phenyl-1,2-dihydroisoquinolin-3-yl)ethyl)amino)pyrido[2,3-d]pyrimidin-5(8H)-one]
28 | 54 | – | – | – | – | COc1cc(-c2cccc3c(Cl)c([C@H](C)Nc4ncnc5[nH]ccc(=O)c45)n(-c4ccccc4)c(=O)c23)cc(OC)c1C [Example 177, (S)-4-((1-(4-chloro-8-(3,5-dimethoxy-4-methylphenyl)-1-oxo-2-phenyl-1,2-dihydroisoquinolin-3-yl)ethyl)amino)pyrido[2,3-d]pyrimidin-5(8H)-one]
– | – | 70 | 78 | – | – | CCOC(C)(C)c1ncc(-c2cccc3c(Cl)c([C@H](C)Nc4ncnc5[nH]ccc(=O)c45)n(-c4ccccc4)c(=O)c23)cn1 [Example 404, (S)-4-((1-(4-chloro-8-(2-(2-ethoxypropan-2-yl)pyrimidin-5-yl)-1-oxo-2-phenyl-1,2-dihydroisoquinolin-3-yl)ethyl)amino)pyrido[2,3-d]pyrimidin-5(8H)-one]
